Measured values as given in ChEMBL document CHEMBL3885861, “Open TG-GATES”.

Species: Rattus norvegicus
Assay: Open TG-GATES - Regimen: Daily Repeat
Format: toxicity, organism-based, Sprague-Dawley
Set-up: regimen Daily Repeat, gender Male, age 6 weeks
Conditions: in vivo, po, 20 mg/kg, route gavage, dose level Low; for APTT / Bas / Eos / Fbg / Hb / Ht / Lym / MCH / MCHC / MCV / Mono / Neu / PT / Plat / RBC / Ret / WBC: tissue Blood; for KIDNEY_L / KIDNEY_R / KIDNEY_TOTAL: tissue Kidney; for LIVER: tissue Liver; for A/G / ALP / ALT / AST / BUN / CRE / Ca / Cl / DBIL / GLC / IP / K / LDH / Na / PL / RALB / TBIL / TC / TG / TP / gamma-GTP: tissue Plasma

## CC(CN1c2ccccc2Sc2ccccc21)N(C)C (configuration not stated) [PROMETHAZINE]
72 h, time 3 day
  TERMINAL_BW: 231 g
  APTT: 22 s
  Bas: 0%
  Eos: 1%
  Fbg: 314.4 mg/dL
  Hb: 13.3 g/dL
  Ht: 40.4%
  Lym: 77.2%
  MCH: 20.7 pg
  MCHC: 33.1%
  MCV: 62.7 fL
  Mono: 2.4%
  Neu: 18.6%
  PT: 16.2 s
  Plat: 125.4 x10_4/uL
  RBC: 644.6 x10_4/ul
  Ret: 6.8%
  WBC: 97.3 x10_2/uL
  KIDNEY_L: 1 g
  KIDNEY_R: 1.1 g
  KIDNEY_TOTAL: 2.1 g
  LIVER: 11.5 g
  A/G: 1.2
  ALP: 1570.4 IU/L
  ALT: 48.2 IU/L
  AST: 75.2 IU/L
  BUN: 17.2 mg/dL
  CRE: 0.2 mg/dL
  Ca: 10.8 mg/dL
  Cl: 105.4 meq/L
  DBIL: 0 mg/dL
  GLC: 184 mg/dL
  IP: 7.1 mg/dL
  K: 4.3 meq/L
  LDH: 166.4 IU/L
  Na: 142 meq/L
  PL: 155.2 mg/dL
  RALB: 3.1 g/dL
  TBIL: 0.004 mg/dL
  TC: 78.2 mg/dL
  TG: 118.4 mg/dL
  TP: 5.7 g/dL
  gamma-GTP: 2 IU/L
[…], time 7 day
  TERMINAL_BW: 261 g
  APTT: 22.6 s
  Bas: 0%
  Eos: 0.8%
  Fbg: 282.6 mg/dL
  Hb: 13.4 g/dL
  Ht: 40.4%
  Lym: 84.4%
  MCH: 20.5 pg
  MCHC: 33.3%
  MCV: 61.5 fL
  Mono: 2.4%
  Neu: 11.6%
  PT: 16 s
  Plat: 114.7 x10_4/uL
  RBC: 657.4 x10_4/ul
  Ret: 5.4%
  WBC: 125.4 x10_2/uL
  KIDNEY_L: 1.1 g
  KIDNEY_R: 1.1 g
  KIDNEY_TOTAL: 2.2 g
  LIVER: 12.4 g
  A/G: 1.3
  ALP: 1595.8 IU/L
  ALT: 46 IU/L
  AST: 79.8 IU/L
  BUN: 18.2 mg/dL
  CRE: 0.2 mg/dL
  Ca: 10.5 mg/dL
  Cl: 106.4 meq/L
  DBIL: 0 mg/dL
  GLC: 185.2 mg/dL
  IP: 6.7 mg/dL
  K: 4.3 meq/L
  LDH: 169.2 IU/L
  Na: 141.6 meq/L
  PL: 133 mg/dL
  RALB: 3.1 g/dL
  TBIL: 0.004 mg/dL
  TC: 66.2 mg/dL
  TG: 113.4 mg/dL
  TP: 5.5 g/dL
  gamma-GTP: 1.8 IU/L
[…], time 14 day
  TERMINAL_BW: 292.3 g
  APTT: 23.8 s
  Bas: 0%
  Eos: 1%
  Fbg: 315 mg/dL
  Hb: 14.7 g/dL
  Ht: 42.6%
  Lym: 79.6%
  MCH: 19.8 pg
  MCHC: 34.4%
  MCV: 57.6 fL
  Mono: 2%
  Neu: 16.6%
  PT: 15.8 s
  Plat: 112 x10_4/uL
  RBC: 740.6 x10_4/ul
  Ret: 4.2%
  WBC: 109.3 x10_2/uL
  KIDNEY_L: 1.1 g
  KIDNEY_R: 1.1 g
  KIDNEY_TOTAL: 2.3 g
  LIVER: 13.1 g
  A/G: 1.2
  ALP: 1261.8 IU/L
  ALT: 45.8 IU/L
  AST: 71.4 IU/L
  BUN: 18.6 mg/dL
  CRE: 0.2 mg/dL
  Ca: 10.6 mg/dL
  Cl: 106 meq/L
  DBIL: 0 mg/dL
  GLC: 182.6 mg/dL
  IP: 6.2 mg/dL
  K: 4.1 meq/L
  LDH: 128.4 IU/L
  Na: 142.6 meq/L
  PL: 146.6 mg/dL
  RALB: 3.2 g/dL
  TBIL: 0.004 mg/dL
  TC: 71.6 mg/dL
  TG: 116.6 mg/dL
  TP: 5.8 g/dL
  gamma-GTP: 2.6 IU/L
[…], time 28 day
  TERMINAL_BW: 387.7 g
  APTT: 23.6 s
  Bas: 0%
  Eos: 1%
  Fbg: 297.6 mg/dL
  Hb: 15 g/dL
  Ht: 43.5%
  Lym: 79.2%
  MCH: 19.1 pg
  MCHC: 34.6%
  MCV: 55.2 fL
  Mono: 1.6%
  Neu: 17.4%
  PT: 16.3 s
  Plat: 96.2 x10_4/uL
  RBC: 787.8 x10_4/ul
  Ret: 2.3%
  WBC: 118.8 x10_2/uL
  KIDNEY_L: 1.4 g
  KIDNEY_R: 1.4 g
  KIDNEY_TOTAL: 2.7 g
  LIVER: 15.9 g
  A/G: 1.1
  ALP: 1046.2 IU/L
  ALT: 48.6 IU/L
  AST: 71.6 IU/L
  BUN: 19.8 mg/dL
  CRE: 0.2 mg/dL
  Ca: 10.4 mg/dL
  Cl: 106.4 meq/L
  DBIL: 0 mg/dL
  GLC: 184.6 mg/dL
  IP: 5.9 mg/dL
  K: 4 meq/L
  LDH: 136 IU/L
  Na: 143.2 meq/L
  PL: 137.4 mg/dL
  RALB: 3.1 g/dL
  TBIL: 0.006 mg/dL
  TC: 65.4 mg/dL
  TG: 139.8 mg/dL
  TP: 6 g/dL
  gamma-GTP: 2 IU/L
